Test: Water confinement property test (barrier property)
Type: physicochemical
Conditions: 80 wt % aqueous solution, 0.01 mL/cm^2 on filter paper, 40° C. and 25% RH, 24 hours

Water evaporation inhibition rate: 16.2%
Structure (SMILES): OCC(O)CO [Compound A52, glycerin, reference compound]
